Source: patent publication US12421191B2, “3-hydroxyoxindole derivatives as CRHR2 antagonist” (RaQualia Pharma Inc., priority 2020, dated 2025)

Target: T1, human CRHR2-alpha (Homo sapiens, UniProt Q13324)
T1 construct: host or cells: CHO-K1
T1 sequence (Q13324 1-411): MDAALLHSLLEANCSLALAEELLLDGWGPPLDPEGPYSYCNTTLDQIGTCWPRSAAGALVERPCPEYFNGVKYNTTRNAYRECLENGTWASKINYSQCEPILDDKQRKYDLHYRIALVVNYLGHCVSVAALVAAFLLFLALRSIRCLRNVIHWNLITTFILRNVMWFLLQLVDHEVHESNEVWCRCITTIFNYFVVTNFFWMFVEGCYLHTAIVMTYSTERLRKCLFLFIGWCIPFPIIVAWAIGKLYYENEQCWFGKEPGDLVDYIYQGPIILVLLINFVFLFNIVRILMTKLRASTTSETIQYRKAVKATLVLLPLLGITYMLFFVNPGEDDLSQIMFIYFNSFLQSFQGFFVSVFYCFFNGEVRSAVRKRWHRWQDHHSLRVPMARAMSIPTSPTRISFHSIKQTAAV
Assay: cAMP functional assay for human CRHR2 (LANCE Ultra TR-FRET)
Format: cell-based
Conditions: inhibition of cAMP production in CHO-K1 cells stably expressing human CRHR2-alpha, EC90 of human urocortin2 as agonist; read-out: IC50 against CRHR2
Protocol: cAMP functional assay for human CRHR2 The ability of the compounds of this invention to inhibit either CRHR2 is assessed by 3′,5′-cyclic adenosine monophosphate (cAMP) production in cells using the LANCE Ultra cAMP assay kit (ParkinElmer), which are designed based on the homogeneous time-resolved fluorescence resonance energy transfer (TR-FRET) immunoassay.
CHO-K1 (Chinese hamster ovary) cells stably expressing human CRHR2-alpha (DiscoveRX, Cat. 95-0048C2) are grown in HAM's F12 media supplemented with 10% fetal bovine serum (FBS), 100 units/mL penicillin G, 100 microg/mL hygromycin and 0.5 microg/mL geneticin at 37° C. in 5% CO2 humidified incubator to 80% confluence. After 7 hours starvation treatment in culture media containing 0.1% FBS, the cells are washed with Hanks balanced salt solution (HBSS) and cryopreserved.
For cAMP assay, frozen cells are thawed and washed with HBSS, followed by resuspending cells in assay buffer (HBSS containing 0.1% bovine serum albumin, 0.5 mM isobutylmethylxanthine and 5 mM Hepes, pH 7.4) at the appropriate concentration for the assay. The cell suspensions are plated on 384-well microplates (Greiner Bio-One) at a density of 4,000 cells per well. After preincubating the cells with various concentrations of the compounds for 30 min at 25° C., an assay buffer containing EC90 concentration of agonist is added and the cells are incubated for 30 min at 25° C. Human urocortin2 (Peptide Institute) is used as agonists for CRHR2. For the termination of assay, europium-labeled cAMP tracer and ULight (registered trademark) dye labeled cAMP antibodies, both prepared with Lance-Ultra cAMP detection reagent (PerkinElmer) are added in the plate and incubate for 60 min at 25° C. After incubation, TR-FRET signal is detected by EnVision plate reader (PerkinElmer). The IC50 values for compounds are calculated from dose-response curves by fitting the percent inhibition using XLfit (ID Business Solutions).

| Structure (SMILES) | IC50 |
| --- | --- |
| COc1ccc(C2(O)C(=O)N(C[C@H]3CC[C@H](NC(=O)c4cc(Cl)cnc4C)CC3)c3ccccc32)c(F)c1F (stereo partly drawn) [Example 139, 5-chloro-N-((1r,4r)-4-((3-(2,3-difluoro-4-methoxyphenyl)-3-hydroxy-2-oxoindolin-1-yl)methyl)cyclohexyl)-2-methylnicotinamide] | < 200 nM |
| O=C(N[C@H]1CC[C@H](CN2C(=O)C(O)(c3cccc(F)c3F)c3ccccc32)CC1)c1cc(Cl)cnc1C(F)(F)F (stereo partly drawn) [Example 113, 5-chloro-N-((1r,4r)-4-((3-(2,3-difluorophenyl)-3-hydroxy-2-oxoindolin-1-yl)methyl)cyclohexyl)-2-(trifluoromethyl)nicotinamide] | < 200 nM |
| COc1ccc(F)c(C2(O)C(=O)N(C[C@H]3CC[C@H](NC(=O)c4cc(Cl)cnc4C(F)(F)F)CC3)c3ccccc32)c1 (stereo partly drawn) [Example 185, 5-chloro-N-((1r,4r)-4-((3-(2-fluoro-5-methoxyphenyl)-3-hydroxy-2-oxoindolin-1-yl)methyl)cyclohexyl)-2-(trifluoromethyl)nicotinamide] | < 200 nM |
| COc1ccc(F)c(C2(O)C(=O)N(C[C@H]3CC[C@H](NC(=O)c4cc(Cl)cnc4C(F)F)CC3)c3cc(F)ccc32)c1 (stereo partly drawn) [Example 156, 5-chloro-2-(difluoromethyl)-N-((1r,4r)-4-((6-fluoro-3-(2-fluoro-5-methoxyphenyl)-3-hydroxy-2-oxoindolin-1-yl)methyl)cyclohexyl) nicotinamide] | < 200 nM |
| Cc1ncc(Cl)cc1C(=O)N[C@H]1CC[C@H](CN2C(=O)C(O)(c3cccc(F)c3F)c3ccccc32)CC1 (stereo partly drawn) [Example 173, 5-chloro-N-((1r,4r)-4-((3-(2,3-difluorophenyl)-3-hydroxy-2-oxoindolin-1-yl)methyl)cyclohexyl)-2-methylnicotinamide] | < 200 nM |
| O=C(N[C@H]1CC[C@H](CN2C(=O)C(O)(c3ccc(F)cn3)c3ccccc32)CC1)c1cc(Cl)cnc1C(F)F (stereo partly drawn) [Example 18, 5-chloro-2-(difluoromethyl)-N-((1r,4r)-4-((3-(5-fluoropyridin-2-yl)-3-hydroxy-2-oxoindolin-1-yl)methyl)cyclohexyl) nicotinamide] | < 200 nM |
| O=C(N[C@H]1CC[C@H](CN2C(=O)C(O)(c3cccc(Cl)c3F)c3ccccc32)CC1)c1cc(Cl)cnc1C(F)F (stereo partly drawn) [Example 67, 5-chloro-N-((1r,4r)-4-((3-(3-chloro-2-fluorophenyl)-3-hydroxy-2-oxoindolin-1-yl)methyl)cyclohexyl)-2-(difluoromethyl)nicotinamide] | < 200 nM |
| O=C(N[C@H]1CC[C@H](CN2C(=O)C(O)(c3cccc(Cl)c3)c3ccccc32)CC1)c1cc(Cl)cnc1C(F)F (stereo partly drawn) [Example 48, 5-chloro-N-((1r,4r)-4-((3-(3-chlorophenyl)-3-hydroxy-2-oxoindolin-1-yl)methyl)cyclohexyl)-2-(difluoromethyl)nicotinamide] | < 200 nM |
| O=C(N[C@H]1CC[C@H](CN2C(=O)C(O)(c3cccc(F)c3)c3ccccc32)CC1)c1cc(Cl)cnc1C(F)F (stereo partly drawn) [Example 20, 5-chloro-2-(difluoromethyl)-N-((1r,4r)-4-((3-(3-fluorophenyl)-3-hydroxy-2-oxoindolin-1-yl)methyl)cyclohexyl) nicotinamide] | < 200 nM |
| Cc1cccc2c1C(O)(c1ccc(F)cn1)C(=O)N2C[C@H]1CC[C@H](NC(=O)c2cc(Cl)cnc2C(F)F)CC1 (stereo partly drawn) [Example 178] | < 200 nM |
| O=C(N[C@H]1CC[C@H](CN2C(=O)C(O)(c3cccc(Cl)c3F)c3ccc(F)cc32)CC1)c1cc(Cl)cnc1C(F)F (stereo partly drawn) [Example 117, 5-chloro-N-((1r,4r)-4-((3-(3-chloro-2-fluorophenyl)-6-fluoro-3-hydroxy-2-oxoindolin-1-yl)methyl)cyclohexyl)-2-(difluoromethyl)nicotinamide] | < 200 nM |
| COc1ccc(C2(O)C(=O)N(C[C@H]3CC[C@H](NC(=O)c4cc(Cl)cnc4C(F)F)CC3)c3ccccc32)c(F)c1 (stereo partly drawn) [Example 54, 5-chloro-2-(difluoromethyl)-N-((1r,4r)-4-((3-(2-fluoro-4-methoxyphenyl)-3-hydroxy-2-oxoindolin-1-yl)methyl)cyclohexyl) nicotinamide] | < 200 nM |
